According to PMC7614687, “Modulation of the substrate specificity of the kinase PDK1 by distinct conformations of the full-length protein*” (Science signaling, 2023):

Molecular target: T1, SNAP-PDK1 (Homo sapiens, UniProt O15530)
T1 construct: SNAP-PDK1_50-556 (15 μM, in buffer Tris-HCl 50 mM pH 7.4); His (N); made in house; host or cells: insect cells
T1 sequence (O15530 50-556): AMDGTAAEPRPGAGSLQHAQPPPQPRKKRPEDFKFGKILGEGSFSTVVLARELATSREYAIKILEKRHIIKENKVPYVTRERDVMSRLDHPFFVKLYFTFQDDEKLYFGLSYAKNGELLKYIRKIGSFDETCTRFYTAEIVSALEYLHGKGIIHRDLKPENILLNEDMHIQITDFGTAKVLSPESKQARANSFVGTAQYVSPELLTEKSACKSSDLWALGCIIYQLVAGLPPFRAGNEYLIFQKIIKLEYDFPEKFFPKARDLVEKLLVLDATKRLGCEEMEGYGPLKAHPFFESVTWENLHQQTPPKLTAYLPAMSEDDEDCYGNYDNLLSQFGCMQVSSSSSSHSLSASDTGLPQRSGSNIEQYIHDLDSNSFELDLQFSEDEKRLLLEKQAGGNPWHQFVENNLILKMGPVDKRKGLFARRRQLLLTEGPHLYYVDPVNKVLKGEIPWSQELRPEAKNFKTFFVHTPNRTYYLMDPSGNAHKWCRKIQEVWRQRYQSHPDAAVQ
Assay: STORM-based single particle fluorescence of PDK1 monomers and dimers
Details: 15 μM HYG8
Description: SNAP-PDK1_50-556 (15 μM, in buffer Tris-HCl 50 mM pH 7.4, 200 mM NaCl, 200 mM imidazole and 1 mM DTT) was incubated with SNAP-Cell TMR-Star substrate (NEB) (30 μM) in the dark at room temperature for 1 h. Labelled SNAP-PDK1 was isolated by gel filtration using a PD MidiTrap G-25 Sephadex Column (GE). 10 μl labelled TMR-SNAP-PDK1 was diluted in buffer 50 mM Tris-HCl 50 mM pH 7.4 containing 100 mM NaCl and 1 mM DTT (control) or in the same buffer containing 15 μM HYG8 in a final volume of 20 μl. […] The slides were analysed using stochastic optical reconstruction microscopy (STORM) technology. Fluorescence from monomers was differentiated from that from dimers by the intensity of the fluorescence signals. […]
The STORM microscope used was custom-built around an OlympusIX-73 inverted microscope, as described previously ([96]). A 532 nm 1.5 W laser (Laser Quantum Ventus 532) was used for fluorescence excitation of TMR-Star. […] Images were recorded by an EMCCD camera (Andor iXon3 897). […] After calibration, the parameters selected in the STORM’s software were: shape, two color 120X; view, single; horizontal readout rate, 5.0 MHz; speed, 3.3 μs; clock voltage, normal; frame transfer mode, (select); set exposure time, 100 ms, real exposure time, 100 ms; real accumulation time, 102 ms; effective frame rate, 9.38 Hz; pre amplifier gain 5.1; electron multiplier gain, 30; laser power, 5 mW. […]

O=C(O[C@H]1[C@@H](OP(=O)(O)O)[C@H](OP(=O)(O)O)[C@@H](OP(=O)(O)O)[C@H](OP(=O)(O)O)[C@H]1OP(=O)(O)O)c1ccccc1 [HYG8, 2-O-benzoyl-IP5]
effect on proportion of PDK1 dimers: decreased the proportion of PDK1 dimers
